Measurements reported in patent US20210395327A1, “Growth Hormone-Releasing Hormone Antagonists and Uses Thereof” (United States Government As Represented By The Department …, priority 2019, published 2021).
“Also recorded” adds a separate entry of the source. Non-standard residues stand in square brackets, D forms with d. Residues, ends and D or L forms follow the SMILES beside them. *: point of attachment. Phenylacetyl(2,3,4,5,6-F5) = O=C(Cc1c(F)c(F)c(F)c(F)c1F)*; Phe(F5) = N[C@@H](Cc1c(F)c(F)c(F)c(F)c1F)C(=O)O; hArg = N=C(N)NCCCC[C@H](N)C(=O)O; 12Ado = NCCCCCCCCCCCC(=O)O; Nle = CCCC[C@H](N)C(=O)O; Orn = NCCC[C@H](N)C(=O)O; Abu = CC[C@H](N)C(=O)O; PhAc = O=C(Cc1ccccc1)*

Experiments:
[1] = system: CFPAC-1 pancreatic cancer cells; assay: In vitro cell viability, CFPAC-1; assay type: cell-based, human
Method in brief: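 Cells grown to ~60% confluence, serum-starved 24 h in 0.5% FBS medium, then exposed to compounds at 5 μM (some at 2 μM) or 0.1% DMSO vehicle for 72 h, in quintuplicate, medium changed every 48 h. Viability read by MTS-type CellTiter 96 AQueous assay; values are inhibitory potency relative to MIA602.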

[2] = molecular target: T1, membrane GHRH-receptors on human anterior pituitary cells (Homo sapiens, UniProt Q02643); assay: Receptor binding, displacement of 125I-[His1,Nle27]-hGH-RH(1-32)NH2 on human pituitary membranes
T1 construct: Human pituitary was purchased from the National Hormone and Peptide Program; tissue National Hormone and Peptide Program; host or cells: human pituitary (membrane fractions)
T1 sequence (Q02643 23-423): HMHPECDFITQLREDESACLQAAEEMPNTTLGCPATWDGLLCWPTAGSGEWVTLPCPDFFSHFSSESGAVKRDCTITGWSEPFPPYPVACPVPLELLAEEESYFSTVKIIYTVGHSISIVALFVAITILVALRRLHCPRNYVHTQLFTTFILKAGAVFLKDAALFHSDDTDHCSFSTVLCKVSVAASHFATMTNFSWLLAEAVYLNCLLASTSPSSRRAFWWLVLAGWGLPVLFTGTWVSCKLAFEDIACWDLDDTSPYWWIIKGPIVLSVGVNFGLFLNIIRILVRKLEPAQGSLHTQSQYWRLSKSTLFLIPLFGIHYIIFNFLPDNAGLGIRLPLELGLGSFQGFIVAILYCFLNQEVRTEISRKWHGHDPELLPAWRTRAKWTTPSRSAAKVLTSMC
Method in brief: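 Membrane fractions from human pituitary; peptides displace 125I-[His1,Nle27]-hGH-RH(1-32)NH2. IC50 is the dose giving 50% inhibition of specific binding, from duplicate tubes. Relative affinity is the ratio of test IC50 to hGH-RH(1-29)NH2 IC50.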

Row | IC50 ([2]; membrane receptors on human anterior pituitary cells, mean of two to three determinations, read-out: IC50) [nM] | SMILES | In vitro relative inhibitory potency in comparison to MIA-602, CFPAC-1 ([1]; Table 3B, 5 μM for 72 H, MIA-602 = 1) | relative inhibitory potency in comparison to MIA-602, Pancreatic CFPAC-1 ([1]; antagonist 5 μM for 72 h, cell proliferation assay, MIA602 = 1) | binding affinity to membrane receptors of human pituitary cells (in words) ([2]; competitive binding, human pituitary membrane fractions)
1 | – | CCCC[C@H](NC(=O)[C@@H](NC(=O)[C@H](CC(=O)O)NC(=O)[C@H](CCC(N)=O)NC(=O)[C@H](CC(C)C)NC(=O)[C@H](CC(C)C)NC(=O)[C@H](CCCN)NC(=O)[C@H](Cc1c[nH]cn1)NC(=O)[C@H](C)NC(=O)[C@H](CO)NC(=O)[C@H](CC(C)C)NC(=O)[C@H](CCC(N)=O)NC(=O)[C@H](CC)NC(=O)[C@H](CC(C)C)NC(=O)[C@@H](NC(=O)[C@H](CCCN)NC(=O)[C@H](Cc1c[nH]cn1)NC(=O)[C@H](Cc1ccc(OC)cc1)NC(=O)[C@H](CCCCNC(=N)N)NC(=O)[C@H](C)NC(=O)[C@@H](NC(=O)[C@H](Cc1c(F)c(F)c(F)c(F)c1F)NC(=O)[C@@H](NC(=O)[C@H](C)NC(=O)[C@H](CC(=O)O)NC(=O)[C@@H](CCCNC(=N)N)NC(=O)[C@H](Cc1ccc(O)cc1)NC(=O)CCCCCCCCCCCNC(=O)Cc1ccccc1)[C@@H](C)CC)[C@@H](C)O)C(C)C)[C@@H](C)CC)C(=O)N[C@H](CCCNC(=N)N)C(=O)N[C@@H](CCCCNC(=N)N)C(N)=O [MIA-602, PhAC-Ada, Tyr D-Arg, Asp, Ala, Ile, 5FPhe, Thr, Ala, Har, Tyr(Me), His, Orn, Val, Leu, Abu, Gin, Leu, Ser, Ala, His, Om, Leu, Leu, Gin, Asp, Ile; Nle, D-Arg, Har NH2, reference compound] ({PhAc-12Ado}-Y[dR]DAI[Phe(F5)]TA[hArg]Y(Me)H[Orn]VL[Abu]QLSAH[Orn]LLQDI[Nle][dR][hArg]-NH2) | 1 | 1 | –
2 | 0.15 | CCCC[C@H](NC(=O)[C@@H](NC(=O)[C@H](CC(=O)O)NC(=O)[C@H](CCC(N)=O)NC(=O)[C@H](CC(C)C)NC(=O)[C@H](CC(C)C)NC(=O)[C@H](CCCN)NC(=O)[C@H](Cc1c[nH]cn1)NC(=O)[C@H](C)NC(=O)[C@H](CO)NC(=O)[C@H](CC(C)C)NC(=O)[C@H](CCC(N)=O)NC(=O)[C@H](CC)NC(=O)[C@H](CC(C)C)NC(=O)[C@@H](NC(=O)[C@H](CCCN)NC(=O)[C@H](Cc1c[nH]cn1)NC(=O)[C@H](Cc1ccc(OC)cc1)NC(=O)[C@H](CCCCNC(=N)N)NC(=O)[C@H](C)NC(=O)[C@@H](NC(=O)[C@H](Cc1c(F)c(F)c(F)c(F)c1F)NC(=O)[C@@H](NC(=O)[C@H](C)NC(=O)[C@H](CC(=O)O)NC(=O)[C@@H](CCCNC(=N)N)NC(=O)[C@H](Cc1ccc(O)cc1)NC(=O)CCCCCCCCCCCNC(=O)Cc1c(F)c(F)c(F)c(F)c1F)[C@@H](C)CC)[C@@H](C)O)C(C)C)[C@@H](C)CC)C(=O)N[C@H](CCCNC(=N)N)C(=O)N[C@@H](CCCCNC(=N)N)C(=O)NCCCCCCCCCCCC(N)=O [AVR-553, 5FPhAC-Ada-Tyr-DArg-Asp-Ala-Ile-5FPhe-Thr-Ala-Har-Tyr(Me)-His-Orn-Val-Leu-Abu-Gln-Leu-Ser-Ala-His-Orn-Leu-Leu-Gln-Asp-Ile-Nle-DArg-Har-Ada-NH2] ({Phenylacetyl(2,3,4,5,6-F5)-12Ado}-Y[dR]DAI[Phe(F5)]TA[hArg]Y(Me)H[Orn]VL[Abu]QLSAH[Orn]LLQDI[Nle][dR][hArg][12Ado]-NH2) | – | – | higher binding affinity in comparison to MIA-602; also recorded: highest binding affinities
